Assay results as given in patent publication US20130017537A1, “METHOD OF IN-VITRO IMMUNOASSAY” (BASF Beauty Care Solutions France S.A.S., priority 2011, published 2013).

Test system: type V collagen in the ECM
Experiment: Influence of the lysis solution on the assay of type V collagen in the ECM
Format: cell-based, human
Conditions: repeat experiment, Table 3.2
Method: Thus, normal human fibroblasts obtained from abdominal biopsies were seeded in a 96-well plate and cultured in a defined medium (FGM) to 100% confluency.
After 48 hours of culture postconfluency at 37° C. under 0.5% CO2, the culture medium was collected.
The time of application of the lysis solution tested was 10 minutes at room temperature and with stirring.
The collagen V in the ECM was assayed directly on the ECM by using an anticollagen V antibody. A secondary antibody conjugated to europium was used with a detection reagent and the fluorescence was measured. (Delfia® kit—Perkin Elmer).
The experiment was repeated and the lysis solutions tested were as follows: • solution according to the invention NH4OH: 110 μl of an ammonium hydroxide solution at concentrations between 200 μM and 2 M. • Solution of monoethylamine at 20 Mm • Solution of diethylamine at 20 mM • Solution of triethylamine at 20 mM

Row | SMILES | Ratio: Coll/DNA % (NH4OH = 100) [%]
1 | CCN [Monoethylamine, monoethylamine] | 23.78
2 | CCNCC [Diethylamine, diethylamine] | 17.33
